ChEMBL document CHEMBL1201862, “PubChem BioAssay data set” (2004)
Several values for one entry are separate records, joined by “and”; a condition that tells them apart may be missing. Equal values may be shown once. Activity calls are given as the source filed them.

Key:
[1] = target: T1, Corticotropin-releasing factor receptor 2/Corticotropin-releasing factor-binding protein (Homo sapiens, UniProt P24387+Q13324); experiment: Dose Response confirmation of uHTS hits for small molecule antagonists of the CRF-binding protein and CRF-R2 receptor complex.; type: functional; details: read-out: IC50_Mean
T1 sequence (Q13324 whole entry): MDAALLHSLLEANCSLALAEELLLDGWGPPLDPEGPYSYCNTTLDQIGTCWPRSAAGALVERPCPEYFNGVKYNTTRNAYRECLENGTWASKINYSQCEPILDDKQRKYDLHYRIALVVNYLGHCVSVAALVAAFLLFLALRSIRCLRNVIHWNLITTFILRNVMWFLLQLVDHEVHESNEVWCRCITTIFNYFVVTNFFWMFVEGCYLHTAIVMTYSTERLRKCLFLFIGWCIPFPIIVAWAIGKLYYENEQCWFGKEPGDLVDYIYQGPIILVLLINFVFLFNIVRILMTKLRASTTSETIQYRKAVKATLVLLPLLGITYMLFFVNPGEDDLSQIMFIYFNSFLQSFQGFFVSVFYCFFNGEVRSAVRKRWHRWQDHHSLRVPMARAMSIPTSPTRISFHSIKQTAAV
T1 sequence (P24387 whole entry): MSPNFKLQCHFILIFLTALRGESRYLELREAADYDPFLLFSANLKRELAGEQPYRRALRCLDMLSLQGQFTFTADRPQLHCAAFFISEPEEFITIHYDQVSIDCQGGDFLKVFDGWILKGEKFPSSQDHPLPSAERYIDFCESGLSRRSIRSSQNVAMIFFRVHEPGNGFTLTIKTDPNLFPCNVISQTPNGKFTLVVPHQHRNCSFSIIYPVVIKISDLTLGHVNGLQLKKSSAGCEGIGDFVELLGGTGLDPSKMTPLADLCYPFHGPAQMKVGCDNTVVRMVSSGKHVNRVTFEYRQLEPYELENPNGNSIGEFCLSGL

[2] = target: T1, Corticotropin-releasing factor receptor 2/Corticotropin-releasing factor-binding protein; experiment: activators of CRF receptor 2 with binding protein – uHTS hits, confirmation (AID 602473); type: functional; details: read-out: EC50_Mean
[3] = target: T2, Heat shock factor protein 1 (Mus musculus, UniProt P38532); experiment: inhibition of MG132-induced HSE-luciferase signal, confirmation, cell-based, NIH3T3, luminescence, dose retest (AID 2382); type: functional;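 note: NIH3T3 fibroblasts with HSF1-driven luciferase reporter stressed by proteasome inhibitor MG132; luminescence from HSF1-driven luciferase expression after 8 hours of MG132 stress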
T2 sequence (P38532 whole entry): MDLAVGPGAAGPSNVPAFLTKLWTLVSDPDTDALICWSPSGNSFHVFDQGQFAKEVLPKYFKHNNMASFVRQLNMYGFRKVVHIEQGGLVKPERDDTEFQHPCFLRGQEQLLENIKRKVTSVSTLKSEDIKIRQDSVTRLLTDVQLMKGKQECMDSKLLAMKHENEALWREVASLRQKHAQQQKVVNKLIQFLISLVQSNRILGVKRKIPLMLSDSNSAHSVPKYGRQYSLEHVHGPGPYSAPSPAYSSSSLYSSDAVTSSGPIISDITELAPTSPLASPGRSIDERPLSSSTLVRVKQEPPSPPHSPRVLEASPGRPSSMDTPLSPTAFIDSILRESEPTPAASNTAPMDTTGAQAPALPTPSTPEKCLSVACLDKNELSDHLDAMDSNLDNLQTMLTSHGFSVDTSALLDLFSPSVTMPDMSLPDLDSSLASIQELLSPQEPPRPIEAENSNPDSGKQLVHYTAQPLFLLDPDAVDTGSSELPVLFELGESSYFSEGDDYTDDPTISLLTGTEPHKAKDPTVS

Cytochrome P450 3A4 = Cytochrome P450 3A4 (Homo sapiens, UniProt P08684);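 note: CYP3A4 tested as one member of a cytochrome P450 panel screen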
Sequence of Cytochrome P450 3A4 (P08684 whole entry): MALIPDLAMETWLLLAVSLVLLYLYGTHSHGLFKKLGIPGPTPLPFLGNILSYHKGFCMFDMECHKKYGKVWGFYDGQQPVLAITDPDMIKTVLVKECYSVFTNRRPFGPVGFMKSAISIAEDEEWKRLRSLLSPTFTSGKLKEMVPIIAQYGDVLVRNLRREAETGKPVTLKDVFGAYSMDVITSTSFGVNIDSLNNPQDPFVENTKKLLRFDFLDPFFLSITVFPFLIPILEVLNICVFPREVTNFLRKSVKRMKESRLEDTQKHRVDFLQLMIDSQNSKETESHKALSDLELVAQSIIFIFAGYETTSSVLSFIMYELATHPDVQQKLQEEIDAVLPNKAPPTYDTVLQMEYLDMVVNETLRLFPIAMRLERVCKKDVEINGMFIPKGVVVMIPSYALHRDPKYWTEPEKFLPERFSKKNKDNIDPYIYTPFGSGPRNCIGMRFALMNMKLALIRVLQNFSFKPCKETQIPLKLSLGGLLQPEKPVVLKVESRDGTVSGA

[4] = inhibitors of intracellular T. cruzi replication, confirmation, NIH3T3 host cells, beta-gal luminescence (AID 2044); type: functional, cell-based;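 note: intracellular parasites grown in NIH/3T3 mouse fibroblasts as host cells; luminescent beta-galactosidase reporter signal from transgenic T. cruzi replicating inside host cells; inhibitors lower the luminescence signal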
[5] = cytotoxicity toward NIH3T3 fibroblasts, dose response, counter-screen, cell-based, ATP luminescence, mouse fibroblasts (AID 2010); type: functional;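 note: cells exposed to compound for about 90 hours before reading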
[6] = target: Glyceraldehyde-3-phosphate dehydrogenase (Homo sapiens, UniProt P04406)
Sequence of Glyceraldehyde-3-phosphate dehydrogenase (P04406 whole entry): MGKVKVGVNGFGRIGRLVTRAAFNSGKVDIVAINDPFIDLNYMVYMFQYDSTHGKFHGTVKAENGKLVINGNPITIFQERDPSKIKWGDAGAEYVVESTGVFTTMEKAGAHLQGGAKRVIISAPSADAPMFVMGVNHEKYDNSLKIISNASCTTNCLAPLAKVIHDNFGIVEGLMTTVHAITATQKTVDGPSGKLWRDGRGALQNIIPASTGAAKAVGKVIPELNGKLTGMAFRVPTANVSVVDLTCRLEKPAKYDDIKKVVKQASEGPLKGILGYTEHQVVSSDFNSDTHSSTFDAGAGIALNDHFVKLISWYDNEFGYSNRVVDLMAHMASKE

[7] = Luminescence Cell-Based Dose Response HTS to Identify Activators of Luciferase Translation or Activity in H4 […] Cells. [Related pubchem assays: 1829 (Project Summary), 1814 (Primary HTS)]; type: functional
H4 = experiment: Luminescence Cell-Based Dose Response HTS to Identify Activators of 5'UTR Stem-Loop Driven Prion Protein mRNA Translation in H4 Neuroglioblastoma Cells. [Related pubchem assays: 1829 (Project Summary), 1814 (Primary HTS)]; type: functional; details: Homo sapiens
Cytochrome P450 1A2 = target: T3, Cytochrome P450 1A2 (Homo sapiens, UniProt P05177);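 note: PubChem cytochrome P450 panel assay, CYP1A2 panel member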
T3 sequence (P05177 whole entry): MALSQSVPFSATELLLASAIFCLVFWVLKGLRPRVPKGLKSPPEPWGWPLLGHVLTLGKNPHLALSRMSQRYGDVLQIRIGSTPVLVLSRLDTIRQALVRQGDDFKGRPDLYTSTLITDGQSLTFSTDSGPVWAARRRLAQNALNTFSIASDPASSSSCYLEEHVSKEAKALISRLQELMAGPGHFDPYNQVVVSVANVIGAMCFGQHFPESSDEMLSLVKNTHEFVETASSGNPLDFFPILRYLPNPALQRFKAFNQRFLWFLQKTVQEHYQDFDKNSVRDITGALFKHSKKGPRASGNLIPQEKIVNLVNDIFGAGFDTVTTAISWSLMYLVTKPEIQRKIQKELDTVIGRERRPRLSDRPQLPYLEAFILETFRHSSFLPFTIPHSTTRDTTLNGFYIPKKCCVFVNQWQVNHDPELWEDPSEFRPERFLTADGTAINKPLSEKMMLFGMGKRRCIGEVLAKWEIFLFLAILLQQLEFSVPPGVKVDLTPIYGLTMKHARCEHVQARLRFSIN

Cytochrome P450 2C9 = Cytochrome P450 2C9 (Homo sapiens, UniProt P11712)
Sequence of Cytochrome P450 2C9 (P11712 whole entry): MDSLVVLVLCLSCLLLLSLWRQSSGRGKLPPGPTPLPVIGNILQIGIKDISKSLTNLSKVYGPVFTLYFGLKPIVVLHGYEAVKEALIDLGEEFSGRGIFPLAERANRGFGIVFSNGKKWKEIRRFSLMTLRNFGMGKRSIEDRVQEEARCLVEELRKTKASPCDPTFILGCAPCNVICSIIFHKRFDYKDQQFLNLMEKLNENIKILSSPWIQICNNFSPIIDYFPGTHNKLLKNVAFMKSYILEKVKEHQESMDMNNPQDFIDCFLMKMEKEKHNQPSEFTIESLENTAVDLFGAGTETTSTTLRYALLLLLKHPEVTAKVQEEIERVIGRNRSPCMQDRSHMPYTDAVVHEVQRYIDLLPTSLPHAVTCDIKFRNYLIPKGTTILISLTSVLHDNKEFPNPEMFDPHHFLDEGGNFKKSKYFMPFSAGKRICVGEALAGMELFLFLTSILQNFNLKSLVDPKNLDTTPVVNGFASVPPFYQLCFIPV

[8] = target: T2, Heat shock factor protein 1; experiment: HSF1 potentiators in luciferase reporter cells, confirmation, cell-based, NIH3T3, luminescence, dose retest (AID 435004); type: functional;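 note: stress induced by proteasome inhibitor MG132 added 30 min after compound; luciferase reporter driven by HSF1 response element in NIH3T3 cells; actives raise luminescence as potentiators of the MG132 stress response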
P388/ADR = experiment: cells; type: functional; details: Mus musculus
P388 = experiment: cells; type: functional; details: Mus musculus
SN12K1 = experiment: cells; type: functional; details: Homo sapiens
[9] = P. falciparum Dd2 growth inhibitors, dose response, SYBR Green, cherry-picked samples (AID 1159567); type: functional, cell-based

## COc1cc(-c2ccc3cc(OC)c(OC)c(OC)c3c2)cc(OC)c1OC
[1]
  IC50: > 47.1 µM (inactive)
[2]
  EC50: > 53 µM (inactive)

## CC(=O)C1=C(O)C(=O)N(Cc2cccnc2)C1c1ccc(O)cc1 (stereo not drawn)
[3]
  EC50: > 195 µM (not active)

## N#Cc1ccc(CSC2=NCCN2)cc1
[1]
  IC50: > 47.1 µM (inactive)
[2]
  EC50: > 53 µM (inactive)

## O=c1c(-c2ccccc2)nc2cnc(N3CCOCC3)nc2n1-c1ccccc1
Cytochrome P450 3A4
  AC50: 20 µM (inconclusive)

## C=CCOc1ccn(C)c(=O)n1
[3]
  EC50: > 195 µM (not active)

## O=C(Cc1ccsc1)Nc1ccc(S(=O)(=O)C(F)F)cc1
[3]
  EC50: > 195 µM (not active)

## CCC(=O)Nc1ccc(NC(=O)c2oc3ccccc3c2C)cc1
[1]
  IC50: > 47.1 µM (inactive)
[2]
  EC50: > 53 µM (inactive)

## Cc1cc(C(=O)CN2CCC(C)CC2)c(C)n1-c1ccccc1F
[4]
  EC50: 1.18 µM (active)
[3]
  EC50: < 0.16 µM (active)
[5]
  EC50: > 60 µM (not active)

## O=C(NCc1csc(-c2cccs2)n1)c1ccccc1
[1]
  IC50: > 47.1 µM (inactive)
[2]
  EC50: > 53 µM (inactive)

## COCCNC(=O)COc1ccc(OCCNC[C@@H](O)COc2ccccc2)cc1
Cytochrome P450 3A4
  AC50: 31.6 µM (inconclusive)

## COc1cccc(N2C(=O)C(Cl)=C(N3CCN[C@H](C)C3)C2=O)c1
[6]
  IC50: > 50 µM (inconclusive)

## C#CCSc1nc(C)cc(C(=O)OCC)c1C#N
[1]
  IC50: > 47.1 µM (inactive)
[2]
  EC50: > 53 µM (inactive)

## CCN1C(=O)[C@H]2[C@H]3[C@H](O)[C@H](O)C/C(=N/O[C@@H](C)c4cn([C@H](CO)Cc5ccccc5)nn4)[C@@H]3CC[C@@H]2C1=O
Cytochrome P450 3A4
  AC50: 3.16 µM (inconclusive) and 5.01 µM (inconclusive)

## CCOc1ccc(CNC(=O)c2ccc3nc(N4CCOCC4)sc3c2)cc1
[3]
  EC50: > 195 µM (not active)

## CN1CCc2c(sc3c2C(=O)NC(c2ccc(-c4ccc(Cl)cc4)o2)N3)C1 (stereo not drawn)
[3]
  EC50: > 195 µM (not active)

## O=c1cccc2n1Cc1cc3ccccc3nc1-2
[7]
  EC50: 38.3 µM (active)
H4
  EC50: 37.6 µM (active)

## CC1CCN(S(=O)(=O)c2ccc3c(c2)NC(=O)CS3)CC1
[1]
  IC50: > 47.1 µM (inactive)
[2]
  EC50: > 53 µM (inactive)

## Cc1cc(=O)oc2cc(OCC(=O)Nc3ccc(O)c(C(=O)O)c3)ccc12
[6]
  IC50: > 100 µM (not active)

## CC(=O)N1N=C(c2cccc([N+](=O)[O-])c2)CC1c1ccc(Br)cc1 (stereo not drawn)
[6]
  IC50: > 100 µM (not active)

## N=C(Nc1ccc(I)cc1)NC1C2CC3CC(C2)CC1C3 (stereo not drawn)
Cytochrome P450 3A4
  AC50: 15.8 µM (inconclusive)
Cytochrome P450 1A2
  AC50: 39.8 µM (inconclusive)

## COCCNC(=O)C(OC(=O)c1cccs1)c1ccccc1 (stereo not drawn)
[3]
  EC50: > 195 µM (not active)

## CN(c1ccccc1)c1ncccn1
[3]
  EC50: > 195 µM (not active)

## COc1ccc(CNc2nc3nc4c(c(O)n3n2)CCC4)cc1
Cytochrome P450 3A4
  AC50: 39.8 µM (inconclusive)
Cytochrome P450 2C9
  AC50: 22.4 µM (inconclusive)

## Clc1ccc(-n2cc(COCc3ccccc3)nn2)cc1
[1]
  IC50: > 47.1 µM (inactive)
[8]
  EC50: > 260 µM (inconclusive)
[2]
  EC50: > 53 µM (inactive)

## COc1ccc(-n2nc(C)cc2N)cc1
[3]
  EC50: > 195 µM (not active)

## Cc1nc(NC(=O)C2CC2)sc1C(=O)Nc1ccccc1Cl
[7]
  EC50: 11.6 µM (active)
H4
  EC50: 9.56 µM (active)

## CCc1cc[n+](CC(=O)Nc2ccc(Cl)cc2Cl)cc1
[3]
  EC50: > 195 µM (not active)

## CNC(=S)N(CCc1c(C)[nH]c2ccc(C)cc12)Cc1cc(OC)c(OC)c(OC)c1
[3]
  EC50: > 195 µM (not active)

## Cn1cnnc1SCC(=O)n1c2ccccc2c2ccccc21
Cytochrome P450 3A4
  AC50: 25.1 µM (inconclusive)
Cytochrome P450 2C9
  AC50: 0.00562 µM (inconclusive)

## COc1cccc(N2CCN(C3=C(Cl)C(=O)N(c4ccnc(Cl)c4)C3=O)CC2)c1
[6]
  IC50: > 50 µM (inconclusive)

## O=C(Nc1cc2nn(-c3ccccc3)nc2cc1Cl)c1ccc([N+](=O)[O-])o1
[6]
  IC50: > 100 µM (not active)

## COCC(=O)N1CCC[C@@]2(CCN(Cc3ccc(C#N)cc3)C2)C1
Cytochrome P450 3A4
  AC50: 12.6 µM (inconclusive)

## COc1cc2ccccc2cc1C(=O)N/N=C/c1ccc2c(c1)OCO2
[1]
  IC50: > 47.1 µM (inactive)
[2]
  EC50: > 53 µM (inactive)

## CC(C)[C@H](NC(=O)OC(C)(C)C)C(=O)N/N=C/c1ccc2nccnc2c1
[1]
  IC50: > 47.1 µM (inactive)
[2]
  EC50: > 53 µM (inactive)

## CC(C)CCCC(C)[C@H]1CCC(C2C[C@@H](O)[C@@H]3CC(O)[C@@H](O)C[C@]3(CO)C2=O)[C@]1(C)CCO (stereo partly drawn)
P388/ADR
  GI50: 27 µM (inactive)
P388
  GI50: 17.5 µM (inactive)
SN12K1
  GI50: 18.7 µM (inactive)

## Cc1nnc(N/N=C/c2cc(C)n(-c3ccc(F)cc3)c2C)n1N
[3]
  EC50: 29.7 µM (active)

## COc1ccc(/C=N/OCc2nc3c4c(ncn3n2)Oc2ccc3ccccc3c2C4c2ccccc2)cc1 (stereo not drawn)
Cytochrome P450 3A4
  AC50: 39.8 µM (inconclusive)
Cytochrome P450 2C9
  AC50: 1.26 µM (inconclusive)

## O=C(c1cnccn1)N1CC(=O)N2[C@@H](CO)[C@H](c3ccc(C#CCc4ccccc4)cc3)[C@@H]2C1
[9]
  AC50: 5.99 µM (active)

## O=S(=O)(Cc1ccccc1)N1[C@H](CO)[C@@H](c2ccccc2)C12CN(CCC(F)(F)F)C2
[9]
  AC50: 5.09 µM (active)

## C[C@H]1CN([C@@H](C)CO)C(=O)c2ccccc2-c2ccccc2CO[C@H]1CN(C)Cc1ccc(Oc2ccccc2)cc1
[9]
  AC50: 4.26 µM (active)

## C[C@H](CO)N1C[C@H](C)[C@H](CN(C)C(=O)Nc2ccc(N3CCCCC3)cc2)OCc2cnnn2CCCC1=O
[9]
  AC50: > 39 µM (inactive)

## O=c1onc2cnc3ccccc3n12
Cytochrome P450 3A4
  AC50: 31.6 µM (inconclusive)
Cytochrome P450 2C9
  AC50: 39.8 µM (inconclusive)
